Laboratory results from patent US10626126B2, “Compounds” (Pulmocide Limited, priority 2016, dated 2020).

Assays:
Type in all cases: cell-based
RSV B Washington strain = assay: RSV B induced CPE in HEp2 cells; details: human respiratory syncytial virus; for IC50: HEp-2, 144 h, 6 days; for inhibition at 0.1 µg/mL: HEp-2, at 0.1 μg/mL; for inhibition at 1 µg/mL: HEp-2, at 1 μg/mL
Method: (§1) HEp2 cells were seeded (10^3/well/50 μL) in 384-well plates (Catalogue number 353962, BD Falcon, Oxford, UK) in 5% FBS-DMEM (containing 2 mM L-glutamine and 1 mM sodium pyruvate) one day before infection. […] Simultaneously, test compounds (0.5 μL DMSO solution) were added to 100 μL of HEp2 cell culture with virus solution to provide a final DMSO solution of 0.5%. […] Sigma-Aldrich, Dorset, UK) was added to each well and the plate incubated for a further 6 hr (37° C./5% CO2). The fluorescence of each well [545 nm (excitation)/590 nm (emission)] was determined using a multi-scanner (Clariostar: BMG, Buckinghamshire, UK). The percentage inhibition for each well was calculated and the IC50, IC75 and IC90 values were calculated from the concentration-response curve generated for each test compound.

[1] = Cell viability: resazurin assay; details: human, HEp2 cells
Method: HEp2 cells were seeded in 384-well plates (10^3/well/50 μL; BD Falcon Ref 353962) in FBS DMEM (5%, containing 2 mM L-glutamine and 1 mM sodium pyruvate) one day before experimentation. Serum-free DMEM (50 μL) was added to test wells, while for control wells the media was removed and sterile water (100 μL) added. Test compounds (0.5 μL DMSO solution) were added to give a final DMSO concentration of 0.5%. HEp2 cells were incubated with each test compound for 5 days (37° C./5% CO2 in 2.5% FBS) and then resazurin stock solution (5 μL; 0.03%) was added to each well and the plate incubated for a further 6 hr (37° C./5% CO2). The fluorescence of each well at 545 nm (excitation) and 590 nm (emission) was determined using a multi-scanner (Clariostar: BMG Labtech). The percentage loss of cell viability was calculated for each well relative to vehicle (0.5% DMSO) treatment. Note that any apparent increase in cell viability associated with test compound treatment relative to vehicle is consequently tabulated as a negative percentage. Where appropriate, a CC50 value was calculated from the concentration-response curve generated from the concentration-response curve for each test compound.

RSV A2 strain = assay: RSV A2 induced CPE in HEp2 cells; details: human respiratory syncytial virus; for IC50: HEp-2, 120 h, 5 days; for inhibition at 0.01 µg/mL: HEp-2, at 0.01 μg/mL
Method: as §1

Row | SMILES | IC50 (RSV B Washington strain) | IC50 (RSV A2 strain) | inhibition at 0.1 µg/mL (RSV B Washington strain) | CC50 at 5 days [1] | inhibition at 0.01 µg/mL (RSV A2 strain) | inhibition at 1 µg/mL (RSV B Washington strain)
1 | Cc1cnc(N2CC3(CCOCC3)C2)c(C(=O)Nc2ccc(C(=O)N3CCc4cc(C(=O)Nc5c(O)cccc5F)sc4-c4sccc43)cc2)c1 [Example 15, N-(2-fluoro-6-hydroxyphenyl)-4-(4-(5-methyl-2-(7-oxa-2-azaspiro[3.5]nonan-2-yl)nicotinamido)benzoyl)-5,6-dihydro-4H-dithieno[3,2-b:2′,3′-d]azepine-8-carboxamide] | 86 nM | 0.3 nM | – | > 13800 nM | 100% | 90%
2 | Cc1cnc(N2CC3(CCOCC3)C2)c(C(=O)Nc2ccc(C(=O)N3CCc4cc(C(=O)Nc5ccccc5)sc4-c4sccc43)cc2)c1 [Example 8, 4-(4-(5-methyl-2-(7-oxa-2-azaspiro[3.5]nonan-2-yl)nicotinamido)benzoyl)-N-phenyl-5,6-dihydro-4H-dithieno [3,2-b:2′,3′-d]azepine-8-carboxamide] | 137 nM | 0.68 nM | – | > 14500 nM | 100% | 97%
3 | Cc1cc(C(=O)Nc2ccc(C(=O)N3CCc4cc(C(=O)Nc5c(F)cccc5F)sc4-c4sccc43)c(F)c2)c(N2CC3(CCOCC3)C2)nc1C [Example 23, N-(2,6-difluorophenyl)-4-(4-(5,6-dimethyl-2-(7-oxa-2-azaspiro[3.5]nonan-2-yl)nicotinamido)-2-fluorobenzoyl)-5,6-dihydro-4H-dithieno[3,2-b:2′,3′-d]azepine-8-carboxamide] | 70 nM | 0.67 nM | – | > 13200 nM | 96% | 96%
4 | O=C(Nc1c(F)cccc1F)c1cc2c(s1)-c1sccc1N(C(=O)c1ccc(NC(=O)c3cccnc3N3CC4(CCOCC4)C3)cc1F)CC2 [Example 7, 4-(4-(2-(7-oxa-2-azaspiro[3.5]nonan-2-yl)nicotinamido)-2-fluorobenzoyl)-N-(2,6-difluorophenyl)-5,6-dihydro-4H-dithieno[3,2-b:2′,3′-d]azepine-8-carboxamide] | 97 nM | 2.6 nM | – | > 13700 nM | 87% | 82%
5 | COc1ccc(C(=O)Nc2ccc(C(=O)N3CCc4cc(C(=O)Nc5c(F)cccc5F)sc4-c4sccc43)cc2)c(N2CC3(CCOCC3)C2)n1 [Example 22, N-(2,6-difluorophenyl)-4-(4-(6-methoxy-2-(7-oxa-2-azaspiro[3.5]nonan-2-yl)nicotinamido)benzoyl)-5,6-dihydro-4H-dithieno[3,2-b:2′,3′-d]azepine-8-carboxamide] | 159 nM | 1.7 nM | – | > 13500 nM | 94% | 94%
6 | O=C(Nc1c(F)cccc1F)c1cc2c(s1)-c1sccc1N(C(=O)c1ccc(NC(=O)c3cccnc3N3CCC4(CCOCC4)CC3)cc1)CC2 [Example 33, 4-(4-(2-(3-oxa-9-azaspiro[5.5]undecan-9-yl)nicotin amido)benzoyl)-N-(2,6-difluorophenyl)-5,6-dihydro-4H-dithieno[3,2-b:2′,3′-d]azepine-8-carboxamide] | > 1350 nM | 1.4 nM | – | > 13500 nM | 100% | 23%
7 | Cc1cnc(N2CCC3(CCOCC3)CC2)c(C(=O)Nc2ccc(C(=O)N3CCc4cc(C(=O)Nc5c(F)cccc5F)sc4-c4sccc43)cc2)c1 [Example 34, N-(2,6-difluorophenyl)-4-(4-(5-methyl-2-(3-oxa-9-azaspiro[5.5]undecan-9-yl)nicotinamido)benzoyl)-5,6-dihydro-4H-dithieno[3,2-b:2′,3′-d]azepine-8-carboxamide] | > 1330 nM | 4.4 nM | – | > 13300 nM | 100% | 9%

Molecules with a lower IC50 (RSV B Washington strain), results first:

Row | IC50 (RSV B Washington strain) | IC50 (RSV A2 strain) | SMILES | inhibition at 0.1 µg/mL (RSV B Washington strain) | CC50 at 5 days [1] | inhibition at 0.01 µg/mL (RSV A2 strain) | inhibition at 1 µg/mL (RSV B Washington strain)
8 | 17 nM | 0.37 nM | Cc1ccc(C(=O)Nc2ccc(C(=O)N3CCc4cc(C(=O)Nc5c(F)cccc5F)sc4-c4sccc43)cc2)c(N2CC3(CCOCC3)C2)n1 [Example 21, N-(2,6-difluorophenyl)-4-(4-(6-methyl-2-(7-oxa-2-azaspiro [3.5]nonan-2-yl)nicotinamido)benzoyl)-5,6-dihydro-4H-dithieno[3,2-b:2′,3′-d]azepine-8-carboxamide] | 91% | > 13800 nM | 91% | –
9 | 18 nM | 0.28 nM | Cc1cc(C(=O)Nc2ccc(C(=O)N3CCc4cc(C(=O)Nc5c(F)cccc5F)sc4-c4sccc43)cc2)c(N2CC3(CCOCC3)C2)nc1C [Example 4, N-(2,6-Difluorophenyl)-4-(4-(5,6-dimethyl-2-(7-oxa-2-azaspiro[3.5]nonan-2-yl)nicotinamido)benzoyl)-5,6-dihydro-4H-dithieno[3,2-b:2′,3′-d]azepine-8-carboxamide] | 98% | > 13500 nM | 96% | –
10 | 63 nM | 0.44 nM | O=C(Nc1c(F)cccc1F)c1cc2c(s1)-c1sccc1N(C(=O)c1ccc(NC(=O)c3cccnc3N3CC4(CCOCC4)C3)cc1)CC2 [Example 6, 4-(4-(2-(7-oxa-2-azaspiro[3.5]nonan-2-yl)nicotin-amido)benzoyl)-N-(2,6-difluorophenyl)-5,6-dihydro-4H-dithieno[3,2-b:2′,3′-d]azepine-8-carboxamide] | – | > 14000 nM | 93% | 95%
11 | 15 nM | 0.48 nM | O=C(Nc1c(F)cccc1F)c1cc2c(s1)-c1sccc1N(C(=O)c1ccc(NC(=O)c3cc4sccc4nc3N3CC4(CCOCC4)C3)cc1F)CC2 [Example 28, 4-(4-(5-(7-oxa-2-azaspiro[3.5]nonan-2-yl)thieno[3,2-b]pyridine-6-carboxamido)-2-fluorobenzoyl)-N-(2,6-difluorophenyl)-5,6-dihydro-4H-dithieno[3,2-b:2′,3′-d] azepine-8-carboxamide] | 92% | > 12700 nM | 89% | –
12 | 8.3 nM | 0.21 nM | Cc1cnc(N2CC3(CCOCC3)C2)c(C(=O)Nc2ccc(C(=O)N3CCc4cc(C(=O)Nc5c(C)cccc5F)sc4-c4sccc43)cc2)c1 [Example 11, N-(2-fluoro-6-methylphenyl)-4-(4-(5-methyl-2-(7-oxa-2-azaspiro[3.5]nonan-2-yl)nicotinamido)benzoyl)-5,6-dihydro-4H-dithieno[3,2-b:2′,3′-d]azepine-8-carboxamide] | 100% | > 13900 nM | 100% | –
13 | 11 nM | 0.54 nM | Cc1cccc(F)c1NC(=O)c1cc2c(s1)-c1sccc1N(C(=O)c1ccc(NC(=O)c3cc4c(nc3N3CC5(CCOCC5)C3)CCC4)cc1)CC2 [Example 24, 4-(4-(2-(7-oxa-2-azaspiro[3.5]nonan-2-yl)-6,7-dihydro-5H-cyclopenta[b]pyridine-3-carboxamido)benzoyl)-N-(2-fluoro-6-methylphenyl)-5,6-dihydro-4H-dithieno[3,2-b:2′,3′-d] azepine-8-carboxamide] | 84% | > 13400 nM | 98% | –
14 | 14 nM | 0.15 nM | [2H]c1c([2H])c(C(=O)N2CCc3cc(C(=O)Nc4c(F)cccc4F)sc3-c3sccc32)c([2H])c([2H])c1NC(=O)c1cc(C)cnc1N1CC2(CCOCC2)C1 [Example 3, N-(2,6-difluorophenyl)-4-(4-(5-methyl-2-(7-oxa-2-azaspiro[3.5]nonan-2-yl)nicotinamido)benz-y-2,3,5,6-d4)-5,6-dihydro-4H-dithieno[3,2-b:2′,3′-d]azepine-8-carboxamide] | 100% | > 13700 nM | 95% | –
15 | 17 nM | 1 nM | Cc1cccc(F)c1NC(=O)c1cc2c(s1)-c1sccc1N(C(=O)c1ccc(NC(=O)c3cc4c(nc3N3CC5(CCOCC5)C3)CCOC4)cc1)CC2 [Example 26, N-(4-(8-((2-fluoro-6-methylphenyl)carbamoyl)-5,6-dihydro-4H-dithieno[3,2-b:2′,3′-d]azepine-4-carbonyl)phenyl)-2-(7-oxa-2-azaspiro[3.5]nonan-2-yl)-7,8-dihydro-5H-pyrano[4,3-b]pyridine-3-carboxamide] | 93% | > 13100 nM | 98% | –
